From US11326174B2, “Engineered yeast strains enabling anaerobic xylose fermentation decoupled from microbial growth” (Wisconsin Alumni Research Foundation, priority 2018, dated 2022)
Entries after “also recorded” stand apart in the source; their conditions may differ.

Legend:
[1] = test system: PKA; assay: PKA activity assay: in vitro phosphorylation of a PKA substrate by cell lysate; assay type: biochemical, Saccharomyces cerevisiae; conditions: 50 μM H-89
Method: PKA activity assay. Measurement of PKA activity was performed on lysed cells using the PKA Kinase Activity Assay Kit from ABCAM. Cultures were grown anaerobically in xylose for three doublings (to OD˜0.5), at which 10 mL of cells were collected by centrifugation for 3 minutes at 3000 rpm, in preparation for lysis. Supernatant was removed under anaerobic conditions and the cells were resuspended in 1 mL of SB buffer (1 M sorbitol, 20 mM Tris HCl, pH 7.4) with 300 units of zymolyase (Amsbio) and 10 μL of protease inhibitor cocktail IV (Millipore). Cells were incubated for 10 minutes at 30° C. anaerobically. Cells were collected by […] for 5 minutes at 350×g and washed 1× with SB buffer under anaerobic conditions. Cells were resuspended in 750 μL HLB buffer (10 mM Tris HCl, pH 7.4, 10 mM NaCl, 3 mM MgCl2, 0.3% (vol/vol) NP-40, 10% (vol/vol) glycerol) with 10 μL protease inhibitor cocktail IV and incubated on ice for 10 minutes, anaerobically. […] Lysis was verified using microscopy and total protein abundance was determined using a Bradford assay. […] The reaction was detected using a TECAN Infinite 200 Pro with a wavelength of 450 nm. […] Relative PKA activity was calculated by subtracting […] to remove background, followed by normalization to total protein abundance for each sample. […]

[2] = target: T1, tpk2^as (Saccharomyces cerevisiae, UniProt P06245, M147G); assay: Inhibition of analog-sensitive PKA in Y133 tpk1Δtpk3Δtpk2^as during anaerobic growth on xylose; assay type: cell-based; conditions: 10 μM 1-NM-PP1 added after 17 hours
T1 construct: tpk2as repair templates were generated by PCR of the whole ORF of tpk2as; endogenous in cells; host or cells: S. cerevisiae Y133 tpk1Δtpk3Δtpk2^as; allele placed at the chromosomal TPK2 locus by CRISPR/Cas9 editing
From the text: Y133 tpk1Δtpk3Δtpk2^as was generated using CRISPR/Cas9-mediated genome editing. TPK1 and TPK3 were deleted in Y133 independently and verified by PCR. sgRNA sequence ([…]) that targeted the location within TPK2 to be replaced was cloned into the pXIPHOS vector using Not1 (GenBank accession MG897154), which contains the constitutive RNR2 promoter driving the Cas9 gene and NatMX resistance gene, using gapped plasmid repair using HiFi DNA Assembly Master Mix from NEB. tpk2as repair templates were generated by PCR of the whole ORF of tpk2as from a strain containing mutants of the TPK genes that are sensitive to the ATP-analogue inhibitor 1-NM-PP1 (TPK1 M164G, TPK2 M147G, TPK3 M165G). Purified repair templates were co-transformed at a 20-fold molar excess with the pXIPHOS-TPK2 sgRNA plasmid into Y133 tpk1Δtpk3Δ strain. Colonies resistant to nourseothricin were restreaked onto YPD two times to remove the plasmid (and were verified to now be sensitive to nourseothricin) and tpk2as presence was verified by sequencing. Y133 tpk1Δtpk3Δtpk2^as was grown in xylose anaerobically for 17 hours at which point 10 μM 1-NM-PP1 or DMSO control was added to the cultures.

[3] = test system: Y128; assay: Inhibition of growth using hydroxyurea during anaerobic growth on xylose; assay type: cell-based, Saccharomyces cerevisiae; conditions: 400 mM hydroxyurea added after 17 hours
Method: Inhibition of growth using hydroxyurea. Growth inhibition was performed using 400 mM hydroxyurea, added after 17 hours of anaerobic growth in xylose. Before and after growth inhibition, OD600 as well as sugar and ethanol concentrations were measured as above.

T1 sequence (P06245 whole entry M147G): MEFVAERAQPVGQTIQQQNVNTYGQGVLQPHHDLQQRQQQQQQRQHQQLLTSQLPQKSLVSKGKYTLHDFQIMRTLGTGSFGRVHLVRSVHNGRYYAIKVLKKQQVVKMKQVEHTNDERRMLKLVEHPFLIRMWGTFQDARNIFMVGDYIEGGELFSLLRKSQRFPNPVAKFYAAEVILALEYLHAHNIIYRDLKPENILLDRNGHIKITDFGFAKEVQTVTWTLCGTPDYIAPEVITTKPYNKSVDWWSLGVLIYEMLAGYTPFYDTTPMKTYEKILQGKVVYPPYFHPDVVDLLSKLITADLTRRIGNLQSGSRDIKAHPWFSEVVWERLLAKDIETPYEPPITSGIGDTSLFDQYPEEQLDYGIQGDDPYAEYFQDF

O=S(=O)(NCCNC/C=C/c1ccc(Br)cc1)c1cccc2cnccc12 [Strain H-89]
Effect on phosphorylation of a PKA substrate in vitro ([1]; lysate from Y128 grown anaerobically on xylose): blocked | Effect on phosphorylation of a PKA target in vitro ([1]; lysate from Y184 bcy1Δ grown anaerobically on xylose): blocked

CC(C)(C)n1nc(Cc2cccc3ccccc23)c2c(N)ncnc21 [Strain 1-NM-PP1]
Effect on growth and fermentation during anaerobic xylose utilization [2]: rapidly inhibited growth and fermentation

NC(=O)NO [hydroxyurea]
Effect on anaerobic xylose utilization [3]: does not promote anaerobic xylose utilization; also recorded: halted xylose utilization | Effect on growth (OD600) [3]: inhibits growth
